# The source made the active and inactive calls. The rule behind the calls is not given here.
# Experiments:
# [1] = molecular target: T1, Matrix metalloproteinase-9 (Homo sapiens, UniProt P14780); test: Reduction of MMP9 activity in TNF-alpha/IL1-beta-stimulated human Caco-2 cells at 50 uM treated 1 hr before stimulation by zymography; type: cell-based
# [2] = molecular target: T1, Matrix metalloproteinase-9; test: Reduction of MMP9 activity in TNF-alpha/IL1-beta-stimulated human Caco-2 cells treated 1 hr before stimulation by zymography; type: cell-based
# T1 sequence (P14780 whole entry): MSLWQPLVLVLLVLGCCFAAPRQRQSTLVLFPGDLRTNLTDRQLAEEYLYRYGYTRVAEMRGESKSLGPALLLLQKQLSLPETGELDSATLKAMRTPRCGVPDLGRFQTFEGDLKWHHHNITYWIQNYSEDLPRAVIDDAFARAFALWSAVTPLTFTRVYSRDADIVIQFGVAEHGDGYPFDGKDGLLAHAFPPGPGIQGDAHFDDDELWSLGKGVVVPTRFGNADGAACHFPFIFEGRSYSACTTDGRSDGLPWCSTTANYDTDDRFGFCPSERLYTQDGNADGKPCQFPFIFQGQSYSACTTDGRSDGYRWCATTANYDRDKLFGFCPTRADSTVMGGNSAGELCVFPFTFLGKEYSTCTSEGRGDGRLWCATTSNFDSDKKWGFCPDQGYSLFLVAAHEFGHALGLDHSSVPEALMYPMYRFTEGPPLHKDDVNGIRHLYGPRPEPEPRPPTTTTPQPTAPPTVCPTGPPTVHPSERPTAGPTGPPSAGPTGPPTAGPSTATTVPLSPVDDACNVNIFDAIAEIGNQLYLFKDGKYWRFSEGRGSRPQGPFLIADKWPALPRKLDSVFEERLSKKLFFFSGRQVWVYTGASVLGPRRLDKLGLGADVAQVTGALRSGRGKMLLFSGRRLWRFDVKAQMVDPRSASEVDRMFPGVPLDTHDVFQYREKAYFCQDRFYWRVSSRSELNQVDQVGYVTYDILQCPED
Structure (SMILES),Activity [1],IC50 [2]
COc1cc(/C=C/c2cc(C)[nH]n2)ccc1O,Active,17.6 µM
COc1cc(/C=C/C(=O)CC(=O)/C=C/c2ccc(O)c(OC)c2)ccc1O [CURCUMIN],,8.5 µM
COc1cc(/C=C/c2n[nH]c(C)c2C)ccc1O,Active,8 µM
COc1cc(/C=C/c2cc(/C=C/c3ccc(O)c(OC)c3)[nH]n2)ccc1O [CURCUMIN PYRAZOLE],Active,19.4 µM

# From ChEMBL document CHEMBL1143360, “Synthesis and biological evaluation of curcuminoid pyrazoles as new therapeutic agents in inflammatory bowel disease: effect on matrix metalloproteinases” (Bioorg Med Chem, 2009)
